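A five-concentration, 48-hour dose response in 96-well plates underlies each endpoint, interpolated linearly between surrounding concentrations. The concentration for 50% growth inhibition is given as GI50.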 Calls of active or inactive are those of the source. Cut-off read from the data, not from the text of the source: active = GI50 up to about 1.1 µM and inactive = higher.
Key:
Test in all cases: NCI tumour cell line growth inhibition, 48 h
LXFL 529 = system: LXFL 529
HOP-62 = system: HOP-62
HCT-15 = system: HCT-15
KM12 = system: KM12
U-251 = system: U-251
SK-OV-3 = system: SK-OV-3
DMS-114 = system: DMS-114
UACC-62 = system: UACC-62
CAKI-1 = system: CAKI-1
M14 = system: M14
UACC-257 = system: UACC-257
NCI-H522 = system: NCI-H522
DMS-273 = system: DMS-273
MOLT-4 = system: MOLT-4
SF-295 = system: SF-295
KM-20L2 = system: KM-20L2
RXF 393 = system: RXF 393
OVCAR-8 = system: OVCAR-8
CCRF-CEM = system: CCRF-CEM
SF-539 = system: SF-539
NCI-H23 = system: NCI-H23
HCT-116 = system: HCT-116
NCI-H226 = system: NCI-H226
K562 = system: K562
M19-MEL = system: M19-MEL
HT-29 = system: HT-29
SNB-19 = system: SNB-19
Malme-3M = system: Malme-3M
SF-268 = system: SF-268
SN12C = system: SN12C
XF498 = system: XF498
OVCAR-5 = system: OVCAR-5
EKVX = system: EKVX
TK-10 = system: TK-10
786-0 = system: 786-0
A549 = system: A549
SNB-78 = system: SNB-78
HL-60 = system: HL-60
HCC 2998 = system: HCC 2998
NCI-H460 = system: NCI-H460
LOX IMVI = system: LOX IMVI
A498 = system: A498
SR = system: SR
SNB-75 = system: SNB-75
COLO 205 = system: COLO 205
DLD-1 = system: DLD-1
UO-31 = system: UO-31
OVCAR-3 = system: OVCAR-3
SK-MEL-28 = system: SK-MEL-28
ACHN = system: ACHN
SK-MEL-5 = system: SK-MEL-5
OVCAR-4 = system: OVCAR-4
SK-MEL-2 = system: SK-MEL-2
IGROV-1 = system: IGROV-1
HOP-92 = system: HOP-92
SW-620 = system: SW-620

## Cn1cc/c(=N\N=c2/ccn(C)c3ccccc23)c2ccccc21
LXFL 529
  GI50: 14.1 µM (inactive)
HOP-62
  GI50: 13.1 µM (inactive)
HCT-15
  GI50: 15.8 µM
KM12
  GI50: 13 µM (inactive)
U-251
  GI50: 15.7 µM (inactive)
SK-OV-3
  GI50: 15.7 µM (inactive)
DMS-114
  GI50: 14.4 µM (inactive)
UACC-62
  GI50: 16.2 µM (inactive)
CAKI-1
  GI50: 17.9 µM (inactive)
M14
  GI50: 16.9 µM (inactive)
UACC-257
  GI50: 13.9 µM (inactive)
NCI-H522
  GI50: 14.6 µM (inactive)
DMS-273
  GI50: 16.4 µM (inactive)
MOLT-4
  GI50: 27.1 µM (inactive)
SF-295
  GI50: 16.1 µM (inactive)
KM-20L2
  GI50: 13.1 µM (inactive)
RXF 393
  GI50: 14.3 µM (inactive)
OVCAR-8
  GI50: 14.9 µM (inactive)
CCRF-CEM
  GI50: 6.31 µM (inactive)
SF-539
  GI50: 15.9 µM (inactive)
NCI-H23
  GI50: 13.2 µM (inactive)
HCT-116
  GI50: 11.1 µM (inactive)
NCI-H226
  GI50: 11.7 µM (inactive)
K562
  GI50: 4.44 µM (inactive)
M19-MEL
  GI50: 18.7 µM (inactive)
HT-29
  GI50: 12.7 µM (inactive)
SNB-19
  GI50: 16.9 µM (inactive)
Malme-3M
  GI50: 17.2 µM (inactive)
SF-268
  GI50: 19.3 µM (inactive)
SN12C
  GI50: 16.9 µM (inactive)
XF498
  GI50: 14.1 µM (inactive)
OVCAR-5
  GI50: 15.8 µM (inactive)
EKVX
  GI50: 14.7 µM (inactive)
TK-10
  GI50: 19.1 µM (inactive)
786-0
  GI50: 16.4 µM (inactive)
A549
  GI50: 15.7 µM (inactive)
SNB-78
  GI50: 16.4 µM (inactive)
HL-60
  GI50: 5.78 µM (inactive)
HCC 2998
  GI50: 15.8 µM (inactive)
NCI-H460
  GI50: 12.1 µM (inactive)
LOX IMVI
  GI50: 11.9 µM (inactive)
A498
  GI50: 18.5 µM (inactive)
SR
  GI50: 16.4 µM (inactive)
SNB-75
  GI50: 24.1 µM (inactive)
COLO 205
  GI50: 10.4 µM (inactive)
DLD-1
  GI50: 14.7 µM (inactive)
UO-31
  GI50: 13.2 µM (inactive)
OVCAR-3
  GI50: 11.7 µM (inactive)
SK-MEL-28
  GI50: 15.2 µM (inactive)
ACHN
  GI50: 13.9 µM (inactive)
SK-MEL-5
  GI50: 15.9 µM (inactive)
OVCAR-4
  GI50: 12.7 µM (inactive)

## CCCC(C)n1c(C)nc2c1C(=O)c1ccccc1C2=O (centres undefined)
SK-MEL-2
  GI50: 20.7 µM (inactive)
LXFL 529
  GI50: 12.7 µM (inactive)
HOP-62
  GI50: 20 µM (inactive)
HCT-15
  GI50: 5.97 µM
KM12
  GI50: 22.9 µM (inactive)
U-251
  GI50: 12.2 µM (inactive)
SK-OV-3
  GI50: 42.7 µM (inactive)
UACC-62
  GI50: 6.78 µM (inactive)
M14
  GI50: 34.6 µM (inactive)
UACC-257
  GI50: 22.4 µM (inactive)
NCI-H522
  GI50: 23.1 µM (inactive)
DMS-273
  GI50: 7.24 µM (inactive)
MOLT-4
  GI50: 18.5 µM (inactive)
SF-295
  GI50: 23.7 µM (inactive)
KM-20L2
  GI50: 18.9 µM (inactive)
RXF 393
  GI50: 20 µM (inactive)
OVCAR-8
  GI50: 22.8 µM (inactive)
CCRF-CEM
  GI50: 30.3 µM (inactive)
SF-539
  GI50: 13 µM (inactive)
NCI-H23
  GI50: 15.6 µM (inactive)
HCT-116
  GI50: 5.52 µM (inactive)
NCI-H226
  GI50: 34.4 µM (inactive)
IGROV-1
  GI50: 37.4 µM (inactive)
K562
  GI50: 8.57 µM (inactive)
M19-MEL
  GI50: 12.6 µM (inactive)
HT-29
  GI50: 17.3 µM (inactive)
HOP-92
  GI50: 16.7 µM (inactive)
SNB-19
  GI50: 37 µM (inactive)
Malme-3M
  GI50: 23.8 µM (inactive)
SF-268
  GI50: 19.6 µM (inactive)
SN12C
  GI50: 29.9 µM (inactive)
XF498
  GI50: 20.8 µM (inactive)
EKVX
  GI50: 43.6 µM (inactive)
TK-10
  GI50: 31 µM (inactive)
786-0
  GI50: 19.9 µM (inactive)
A549
  GI50: 21 µM (inactive)
SNB-78
  GI50: 21.9 µM (inactive)
HL-60
  GI50: 33.2 µM (inactive)
HCC 2998
  GI50: 40.4 µM (inactive)
NCI-H460
  GI50: 4.6 µM (inactive)
LOX IMVI
  GI50: 8.71 µM (inactive)
SR
  GI50: > 100 µM (inactive)
SNB-75
  GI50: 19.5 µM (inactive)
COLO 205
  GI50: 23.3 µM (inactive)
DLD-1
  GI50: 8.43 µM (inactive)
SW-620
  GI50: 37.7 µM (inactive)
UO-31
  GI50: 24.7 µM (inactive)
OVCAR-3
  GI50: 25.9 µM (inactive)
SK-MEL-28
  GI50: 33.7 µM (inactive)
ACHN
  GI50: 27.8 µM (inactive)
SK-MEL-5
  GI50: 13.3 µM (inactive)
OVCAR-4
  GI50: 36.1 µM (inactive)

— ChEMBL document CHEMBL1201862, “PubChem BioAssay data set” (2004)
